Measurements: patent publication US20250034166A1, “POLYCYCLIC FUSED RING DERIVATIVES AND USE THEREOF” (Jacobio Pharmaceuticals Co., Ltd., priority 2021, published 2025)
Read-outs that look alike come from different tables or passages of the source.

Legend:
[1] = test system: AGS cells (K-Ras G12D); assay: Phospho-ERK1/2(THR202/TYR204) HTRF assay; format: cell-based; conditions: Homo sapiens, 2 hours incubation, read-out: p-ERK, IC50 AGS
Description: (§1) p-ERK (MAPK pathway) inhibition activity of each of compounds in a variety of K-Ras mutant and K-Ras WT cell lines indicated in Table 12 was evaluated. MKN-1 with K-Ras WT amplification is also a K-Ras dependent cell line.
(§2) Each of cells in culture medium was seeded in 96-well plates at density indicated in Table 16 and then put in a cell incubator to incubate overnight. The next day, the culture medium was removed and the compound diluted in assay medium was added in each well. After 2 hours incubation in a cell incubator, the assay medium in 96-well plates was removed, then 50 μL of 1× blocking reagent-supplemented lysis buffer (Cisbio) was added and the plates were incubated at 25° C. for 45 min with shaking. 10 μL of cell lysates from the 96-well plates were transferred to a 384-well plate (Greiner) containing […] HTRF® pre-mixed antibodies (Cisbio 64AERPEH). The plate was incubated 4 hours at 25° C. and then read HTRF signals on Tecan Spark multimode microplate reader. The data were analyzed using a 4-parameter logistic model to calculate IC50 values.

[2] = test system: SW620 cells (K-Ras G12V); assay: Phospho-ERK1/2(THR202/TYR204) HTRF assay; format: cell-based; conditions: Homo sapiens, SW-620, 2 hours incubation, read-out: p-ERK, IC50 SW620
Description: as §1, §2

[3] = test system: AGS cells (K-Ras G12D); assay: 2D cell growth inhibition assay (CellTiter-Glo); format: cell-based; conditions: Homo sapiens, 6 days, absolute IC50
Description: (§3) The cell growth inhibition activity of each of compounds was tested by performing cell growth inhibition assays on a variety of K-Ras mutant and K-Ras WT cell lines indicated in Table 14.
(§4) Each of cells in culture medium was plated in TC-treated 96-well plates at a density indicated in Table 14 and incubated in a cell incubator overnight. The next day, each of compounds was diluted in culture medium and added to the plates. After 6 days incubation in cell incubator, the cell viability was detected by CellTiter-Glo® Cell Viability Assay kit (Promega).

[4] = test system: AsPC-1 cells (K-Ras G12D); assay: 2D cell growth inhibition assay (CellTiter-Glo); format: cell-based; conditions: Homo sapiens, ASPC1, AsPC-1 (G12D), 6 days, absolute IC50
Description: as §3, §4

[5] = test system: SW620 cells (K-Ras G12V); assay: 2D cell growth inhibition assay (CellTiter-Glo); format: cell-based; conditions: Homo sapiens, SW-620, 6 days, absolute IC50
Description: as §3, §4

[6] = molecular target: T1, K-Ras G12D (Homo sapiens, UniProt P01116, G12D); assay: biochemical
[7] = molecular target: T2, K-Ras G12V (Homo sapiens, UniProt P01116, G12V); assay: biochemical
[8] = molecular target: T1, K-Ras G12D; assay: biochemical; remark: listed apart in the source
[9] = molecular target: T2, K-Ras G12V; assay: biochemical; remark: listed apart in the source

T2 sequence (P01116 1-169 isoform P01116-2 G12V): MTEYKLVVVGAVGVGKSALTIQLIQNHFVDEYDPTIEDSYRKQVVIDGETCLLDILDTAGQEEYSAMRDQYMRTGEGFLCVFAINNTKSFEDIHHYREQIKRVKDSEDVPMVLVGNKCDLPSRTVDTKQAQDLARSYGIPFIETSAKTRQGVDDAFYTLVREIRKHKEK
T1 sequence (P01116 1-169 isoform P01116-2 G12D): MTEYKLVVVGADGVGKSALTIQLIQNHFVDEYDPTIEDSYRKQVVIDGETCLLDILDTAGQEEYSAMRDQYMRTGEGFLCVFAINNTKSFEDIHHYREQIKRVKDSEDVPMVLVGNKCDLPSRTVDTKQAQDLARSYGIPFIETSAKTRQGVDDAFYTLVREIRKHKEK

Row | Compound | IC50 [1] [nM] | IC50 [2] [nM] | IC50 [3] [nM] | IC50 [4] [nM] | IC50 [5] [nM] | IC50 [6] [nM] | IC50 [7] [nM] | IC50 [8] [nM] | IC50 [9] [nM]
1 | C#Cc1c(F)ccc2cc(O)cc(-c3nc4c5c(nc(OC[C@@]67CCCN6C[C@H](F)C7)nc5c3F)N3CCCOC[C@@H]3CO4)c12 [Compound 6] | 1.5 | 10 | 7.57 | 80.1 | 5.61 |  |  |  | 
2 | C#Cc1c(F)ccc2cc(O)cc(-c3nc4c5c(nc(OC[C@@]67CCCN6C[C@H](F)C7)nc5c3F)N3C5COCCC3(CO4)C5)c12 (some centres unmarked) [Compound 16] |  |  |  |  |  | 57.4 | 43.5 | > 1000 | > 1000
3 | C#Cc1c(F)ccc2cc(O)cc(-c3nc4c5c(nc(OC[C@@]67CCCN6C[C@H](F)C7)nc5c3F)N3CCCC3CO4)c12 (some centres unmarked) [Compound 21] | 19.7 | 60.6 | 99 | 547 | 35.1 |  |  |  | 
4 | C#Cc1c(F)ccc2cc(O)cc(-c3nc4c5c(nc(OCC67CCCN6CC(F)C7)nc5c3F)N3CCOCCC3CO4)c12 (centres unmarked) [Compound 2] | 2.33 | 5.2 | 5.07 | 134 | 13.1 |  |  |  | 
5 | C#Cc1c(F)ccc2cc(O)cc(-c3nc4c5c(nc(OC[C@@]67CCCN6C[C@H](F)C7)nc5c3F)N3CCCCCC3CO4)c12 (some centres unmarked) [Compound 22] | 1.38 | 3.05 | 2.59 | 15.6 | 1.32 |  |  |  | 
6 | C#Cc1c(F)ccc2cc(O)cc(-c3nc4c5c(nc(OC[C@@]67CCCN6C[C@H](F)C7)nc5c3F)N3CCOCC3CO4)c12 (some centres unmarked) [Compound 11] | 26.3 | 16.8 | 31.8 | 346 | 25 |  |  |  | 
7 | C#Cc1c(F)ccc2cc(O)cc(-c3nc4c5c(nc(OC[C@@]67CCCN6C[C@H](F)C7)nc5c3F)N3CCCOC[C@H]3CO4)c12 [Compound 5] | 0.525 | 1.03 | 0.466 |  | 0.819 |  |  |  | 
8 | C#Cc1c(F)ccc2cc(O)cc(-c3cc4c5c(nc(OC[C@@]67CCCN6C[C@H](F)C7)nc5c3F)N3CCOCCC3CO4)c12 (some centres unmarked) [Compound 1] | 16.2 | 38.2 | 326 | 987 | 100 |  |  |  | 
9 | CCc1c(F)ccc2cc(O)cc(-c3cc4c5c(nc(OC[C@@]67CCCN6C[C@H](F)C7)nc5c3F)N3CCOCCC3CO4)c12 (some centres unmarked) [Compound 4] |  |  |  |  |  | 32.7 | 14.7 | > 1000 | > 1000

Continued by falling IC50 [1], values first:

Row | IC50 [1] [nM] | IC50 [2] [nM] | IC50 [3] [nM] | IC50 [4] [nM] | IC50 [5] [nM] | Compound | IC50 [6] [nM] | IC50 [7] [nM] | IC50 [8] [nM] | IC50 [9] [nM]
10 | 48 | 128 | 83.4 | 810 | 91.2 | C#Cc1c(F)ccc2cc(O)cc(-c3nc4c5c(nc(OC[C@@]67CCCN6C[C@H](F)C7)nc5c3F)N3CCOCC3CCO4)c12 (some centres unmarked) [Compound 12] |  |  |  | 
11 | 39.4 | 42.3 | 105 | 702 | 23.9 | CCc1c(F)ccc2cc(O)cc(-c3nc4c5c(nc(OC[C@@]67CCCN6C[C@H](F)C7)nc5c3F)N3CCOCC3CO4)c12 (some centres unmarked) [Compound 14] |  |  |  | 
12 | 23 | 50.1 |  |  |  | C#Cc1c(F)ccc2cc(O)cc(-c3nc4c5c(nc(OC[C@@]67CCCN6C[C@H](F)C7)nc5c3F)N3CCCCC3CCO4)c12 (some centres unmarked) [Compound 23] |  |  |  | 
13 | 6.58 | 18.6 | 6.8 | 64.4 | 7.67 | C#Cc1c(F)ccc2cc(O)cc(-c3nc4c5c(nc(OC[C@@]67CCCN6C[C@H](F)C7)nc5c3F)N3CCCOC[C@H]3CN4C)c12 [Compound 9] |  |  |  | 
14 | 2.32 | 5.13 |  |  |  | C#Cc1c(F)ccc2cc(O)cc(-c3nc4c5c(nc(OC[C@@]67CCCN6C[C@H](F)C7)nc5c3F)N3CCCCC3CO4)c12 (some centres unmarked) [Compound 19] |  |  |  | 
15 | 2.02 | 4.61 | 1.73 | 19.6 | 3.32 | C#Cc1c(F)ccc2cc(O)cc(-c3nc4c5c(nc(OC[C@@]67CCCN6C[C@H](F)C7)nc5c3F)N3CCCOCC3CO4)c12 (some centres unmarked) [Compound 3] |  |  |  | 
16 | 0.691 | 2.01 | 1.23 | 10.2 | 1.49 | C#Cc1c(F)ccc2cc(O)cc(-c3nc4c5c(nc(OC[C@@]67CCCN6C[C@H](F)C7)nc5c3F)N3CCCCC[C@H]3CO4)c12 [Compound 20] |  |  |  | 
